Here are results for 2 substances from patent US8178506B2, “Oligomeric compounds and compositions for use in modulation of small non-coding RNAs” (Regulus Therapeutics Inc., priority 2003, dated 2012).

In the oligonucleotide strings, read from the 5' end, every base follows the letter of its sugar. An asterisk marks phosphorothioate; unmarked linkages are phosphodiester. Other units and linkages are bracketed, terminal groups are in braces. A string of capitals states the bases alone. e = 2'-O-(2-methoxyethyl) (MOE); [5mC] = 5-methylcytosine; d = 2'-deoxy (DNA)

The subject of data set [1] is 3′-UTR of the LIM domain only 4 (LMO4) gene. Nature of the data set: pGL3-LMO4 luciferase assay in HeLa cells. The note with it: 48 hours. Type of data set: cell-based, human. From the text:
In one embodiment, an expression system based on the pGL3-Control (Promega Corp., Madison Wis.) vector containing a CMV promoter controlling expression of a luciferase reporter sequence was used in transient transfections of HeLa cells with plasmids expressing miRNA or pri-miRNA mimics. To assess the ability of miRNA mimics to bind and regulate the expression of the luciferase reporter gene, two reporter plasmids were constructed: 1) a synthetic DNA fragment comprising two sites perfectly complementary to mir-143 were inserted into the pGL3-Control luciferase reporter vector, to create the pGL3-mir-143 sensor plasmid, and 2) a DNA fragment comprising the 3′-UTR of the LIM domain only 4 (LMO4) gene (predicted to be regulated by mir-143) was inserted into pGL3-Control to create pGL3-LMO4; this fragment was PCR-amplified using a primer beginning at position 1261 of the LMO4 sequence (GenBank Accession NM_006769.2, incorporated herein as SEQ ID: 809) and the downstream primer hybridizing to the poly-A tail. In each of these plasmids, the target site was placed downstream of the luciferase coding sequence and upstream of the polyadenylation signal in the 3′-UTR of the luciferase reporter vector. The unmodified pGL3-Control luciferase reporter vector was used as a control.
HeLa cells were routinely cultured and passaged as described, and on the day before transfection with expression or reporter plasmids, the HeLa cells were seeded onto 24-well plates 50,000 cells/well. Cells were transfected according to standard published procedures with various combinations of plasmids using 2 μg Lipofectamine™ 2000 Reagent (Invitrogen) per μg of plasmid DNA, or, when transfecting oligomeric compounds, 1.25 μg of Lipofectamine™ 2000 Reagent per 100 nM oligonucleotide or double-stranded RNA. The luciferase signal in each well was normalized to the Renilla luciferase (RL) activity produced from a co-transfected plasmid, pRL-CMV, which was transfected at 0.5 μg per well. […]

Data set [2] deals with B16-F10 cells. Description: Cell cycle assay in B16-F10 cells. Type of data set: cell-based, mouse. As to conditions: 150 nM, 48 hours, relative to untreated control.

For the substance “ds-mir-143: double-stranded RNA of ISIS 342199 hybridized to its perfect complement ISIS 342200 (sense UGAGAUGAAGCACUGUAGCUCA; antisense UGAGCUACAGUGCUUCAUCUCA; RNA, backbone not given here)”, the figures for the “luciferase expression (% lucif. only control)” value in data set [1] (4 nM), in data set [1] (20 nM) and in data set [1] (100 nM) were 151.6 % lucif. only control, 140.1 % lucif. only control and 128.4 % lucif. only control, respectively.

With “328403 (antisense eA*eG*eG*e[5mC]*e[5mC]*dT*dA*dT*dT*d[5mC]*d[5mC]*dT*dG*dT*dA*eG*e[5mC]*eA*eA*eA) [compound 328403]”, in data set [2], the “% cells in cell cycle phase G1” value was 111%, the “% cells in cell cycle phase G2/M” value is recorded as 99%, the “% cells in cell cycle phase S” value was 88% and the “% cells in cell cycle phase aneuploid” value is recorded as 92%. The “% cells in cell cycle phase subG1” value in data set [2] was 112%.
